The subject of data set [1] is Maximal Electroshock-induced Seizures. Put plainly: Maximal electroshock-induced seizures. The following applies: Mus musculus, read-out: Mes. ED50. Format: in vivo, mice. How it is done:
Maximal Electroshock-induced Seizures. Seizures were induced by application of current (50 mA, 60 pulses/sec, 0.8 sec pulse width, 1 sec duration, d.c.) through saline-coated corneal electrodes using a Ugo Basile ECT device (Model 7801). […] A tonic seizure was defined as a hindlimb extension in excess of 90 degrees from the plane of the body. Results were treated in a quantal manner.
For orientation: In the maximal electroshock model the usual endpoint is tonic extension of the hind limbs.

The next data set concerns the target NR1A/2A NMDA receptor (Rattus norvegicus, UniProt P35439+Q00959). Put plainly: Xenopus oocyte expression system, two-electrode voltage clamp, NR1A/2A. Format: cell-based.
A further data set addresses NR1A/2C NMDA receptor (Rattus norvegicus, UniProt P35439+Q00961). The experiment in a line: Xenopus oocyte expression system, two-electrode voltage clamp, NR1A/2C. Type of data set: cell-based. On the technique in general: In two-electrode clamp one electrode senses voltage and the other passes current.
The target in the next data set is NR1A/2B NMDA receptor (Rattus norvegicus, UniProt P35439+Q00960). The experiment in a line: Xenopus oocyte expression system, two-electrode voltage clamp, NR1A/2B. Type of data set: cell-based. The procedure, abridged:
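Rat NR1A with NR2A, 2B or 2C expressed in Xenopus oocytes and recorded by two-electrode voltage clamp 3-21 days after injection, in Ringer at pH 7.4. Currents evoked with glutamate 100 μM and glycine 1-10 μM, with drug applied by bath perfusion. IC50 fitted from concentration-inhibition curves, or by linear regression for incomplete curves.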

Where two headings read alike, the source gives them in different places. Where only a bound is given, the exact number is not on record here.

Sequence of NR1A/2B NMDA receptor (Q00960 27-1482, other chains not shown): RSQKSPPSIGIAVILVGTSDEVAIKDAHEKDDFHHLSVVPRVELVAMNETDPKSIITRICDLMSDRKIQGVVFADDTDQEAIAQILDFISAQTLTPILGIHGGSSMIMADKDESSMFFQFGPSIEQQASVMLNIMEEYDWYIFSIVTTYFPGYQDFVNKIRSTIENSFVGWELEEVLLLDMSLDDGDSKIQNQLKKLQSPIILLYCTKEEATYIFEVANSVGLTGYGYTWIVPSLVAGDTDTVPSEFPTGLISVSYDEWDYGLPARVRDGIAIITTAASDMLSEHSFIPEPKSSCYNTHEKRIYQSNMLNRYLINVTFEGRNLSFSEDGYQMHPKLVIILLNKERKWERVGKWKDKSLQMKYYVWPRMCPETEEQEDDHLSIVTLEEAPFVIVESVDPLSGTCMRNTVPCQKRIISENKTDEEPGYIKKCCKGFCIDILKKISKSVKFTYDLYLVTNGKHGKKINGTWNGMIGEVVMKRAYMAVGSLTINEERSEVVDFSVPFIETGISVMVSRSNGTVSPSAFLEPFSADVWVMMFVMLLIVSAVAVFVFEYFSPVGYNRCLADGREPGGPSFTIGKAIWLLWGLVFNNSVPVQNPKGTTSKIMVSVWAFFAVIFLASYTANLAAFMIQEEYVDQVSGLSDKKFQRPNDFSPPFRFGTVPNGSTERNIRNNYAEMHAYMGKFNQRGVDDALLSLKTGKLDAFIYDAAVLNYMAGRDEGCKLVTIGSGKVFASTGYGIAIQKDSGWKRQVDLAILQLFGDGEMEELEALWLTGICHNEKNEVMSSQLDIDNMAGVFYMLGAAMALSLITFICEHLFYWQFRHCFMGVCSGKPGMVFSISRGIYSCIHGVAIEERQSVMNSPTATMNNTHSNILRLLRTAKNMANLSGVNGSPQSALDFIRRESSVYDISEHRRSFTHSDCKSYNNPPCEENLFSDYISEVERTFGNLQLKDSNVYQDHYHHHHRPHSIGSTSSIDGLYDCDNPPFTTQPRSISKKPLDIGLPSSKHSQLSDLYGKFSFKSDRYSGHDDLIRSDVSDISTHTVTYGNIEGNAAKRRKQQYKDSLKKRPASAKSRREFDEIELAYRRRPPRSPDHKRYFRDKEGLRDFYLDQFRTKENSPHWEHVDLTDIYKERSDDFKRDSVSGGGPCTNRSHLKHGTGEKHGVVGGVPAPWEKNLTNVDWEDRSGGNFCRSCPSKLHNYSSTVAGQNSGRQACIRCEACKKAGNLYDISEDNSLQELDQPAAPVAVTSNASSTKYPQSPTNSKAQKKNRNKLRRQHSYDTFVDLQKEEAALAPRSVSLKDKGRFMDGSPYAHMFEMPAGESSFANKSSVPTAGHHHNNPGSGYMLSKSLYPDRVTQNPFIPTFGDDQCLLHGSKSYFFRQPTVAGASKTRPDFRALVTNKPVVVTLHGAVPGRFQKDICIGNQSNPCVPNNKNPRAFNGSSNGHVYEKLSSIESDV
Sequence of NR1A/2A NMDA receptor (Q00959 20-1464 limits assumed, other chains not shown): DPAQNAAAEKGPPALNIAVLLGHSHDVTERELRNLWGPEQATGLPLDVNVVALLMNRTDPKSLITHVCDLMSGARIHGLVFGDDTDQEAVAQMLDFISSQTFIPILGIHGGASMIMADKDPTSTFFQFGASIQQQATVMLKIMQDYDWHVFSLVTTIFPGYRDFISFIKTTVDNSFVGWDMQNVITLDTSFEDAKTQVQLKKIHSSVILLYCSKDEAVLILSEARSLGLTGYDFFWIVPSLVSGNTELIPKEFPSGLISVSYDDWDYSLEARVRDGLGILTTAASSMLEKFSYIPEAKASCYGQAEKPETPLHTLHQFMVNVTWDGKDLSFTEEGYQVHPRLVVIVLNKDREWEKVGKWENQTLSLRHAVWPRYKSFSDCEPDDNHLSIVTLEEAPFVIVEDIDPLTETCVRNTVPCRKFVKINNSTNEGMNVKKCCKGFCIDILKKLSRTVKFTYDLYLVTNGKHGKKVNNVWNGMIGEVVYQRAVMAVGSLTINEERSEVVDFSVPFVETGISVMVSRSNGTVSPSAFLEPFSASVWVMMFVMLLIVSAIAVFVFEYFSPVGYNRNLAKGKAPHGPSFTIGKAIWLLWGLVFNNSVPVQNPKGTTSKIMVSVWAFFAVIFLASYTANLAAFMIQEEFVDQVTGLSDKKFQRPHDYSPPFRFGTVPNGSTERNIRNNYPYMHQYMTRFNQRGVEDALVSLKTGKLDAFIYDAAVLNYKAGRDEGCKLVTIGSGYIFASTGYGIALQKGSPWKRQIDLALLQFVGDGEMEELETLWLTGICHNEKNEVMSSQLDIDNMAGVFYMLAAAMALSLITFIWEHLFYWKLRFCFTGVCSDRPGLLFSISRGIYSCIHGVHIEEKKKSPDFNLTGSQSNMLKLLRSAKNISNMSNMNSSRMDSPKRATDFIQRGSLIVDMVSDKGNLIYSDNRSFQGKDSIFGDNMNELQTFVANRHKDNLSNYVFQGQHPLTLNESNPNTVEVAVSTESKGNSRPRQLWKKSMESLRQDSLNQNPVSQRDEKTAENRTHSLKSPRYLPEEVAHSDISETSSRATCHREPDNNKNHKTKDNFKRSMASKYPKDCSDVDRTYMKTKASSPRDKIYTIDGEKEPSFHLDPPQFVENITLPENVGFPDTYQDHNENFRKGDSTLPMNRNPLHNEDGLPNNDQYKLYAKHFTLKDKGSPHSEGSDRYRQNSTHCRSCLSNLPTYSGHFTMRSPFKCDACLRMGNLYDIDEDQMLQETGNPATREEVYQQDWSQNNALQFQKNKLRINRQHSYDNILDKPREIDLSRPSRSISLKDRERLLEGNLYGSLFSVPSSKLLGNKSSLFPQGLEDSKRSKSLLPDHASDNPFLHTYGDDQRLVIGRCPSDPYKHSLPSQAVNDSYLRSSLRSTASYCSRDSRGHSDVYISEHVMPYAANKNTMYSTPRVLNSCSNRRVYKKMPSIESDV
Sequence of NR1A/2C NMDA receptor (Q00961 20-1237, other chains not shown): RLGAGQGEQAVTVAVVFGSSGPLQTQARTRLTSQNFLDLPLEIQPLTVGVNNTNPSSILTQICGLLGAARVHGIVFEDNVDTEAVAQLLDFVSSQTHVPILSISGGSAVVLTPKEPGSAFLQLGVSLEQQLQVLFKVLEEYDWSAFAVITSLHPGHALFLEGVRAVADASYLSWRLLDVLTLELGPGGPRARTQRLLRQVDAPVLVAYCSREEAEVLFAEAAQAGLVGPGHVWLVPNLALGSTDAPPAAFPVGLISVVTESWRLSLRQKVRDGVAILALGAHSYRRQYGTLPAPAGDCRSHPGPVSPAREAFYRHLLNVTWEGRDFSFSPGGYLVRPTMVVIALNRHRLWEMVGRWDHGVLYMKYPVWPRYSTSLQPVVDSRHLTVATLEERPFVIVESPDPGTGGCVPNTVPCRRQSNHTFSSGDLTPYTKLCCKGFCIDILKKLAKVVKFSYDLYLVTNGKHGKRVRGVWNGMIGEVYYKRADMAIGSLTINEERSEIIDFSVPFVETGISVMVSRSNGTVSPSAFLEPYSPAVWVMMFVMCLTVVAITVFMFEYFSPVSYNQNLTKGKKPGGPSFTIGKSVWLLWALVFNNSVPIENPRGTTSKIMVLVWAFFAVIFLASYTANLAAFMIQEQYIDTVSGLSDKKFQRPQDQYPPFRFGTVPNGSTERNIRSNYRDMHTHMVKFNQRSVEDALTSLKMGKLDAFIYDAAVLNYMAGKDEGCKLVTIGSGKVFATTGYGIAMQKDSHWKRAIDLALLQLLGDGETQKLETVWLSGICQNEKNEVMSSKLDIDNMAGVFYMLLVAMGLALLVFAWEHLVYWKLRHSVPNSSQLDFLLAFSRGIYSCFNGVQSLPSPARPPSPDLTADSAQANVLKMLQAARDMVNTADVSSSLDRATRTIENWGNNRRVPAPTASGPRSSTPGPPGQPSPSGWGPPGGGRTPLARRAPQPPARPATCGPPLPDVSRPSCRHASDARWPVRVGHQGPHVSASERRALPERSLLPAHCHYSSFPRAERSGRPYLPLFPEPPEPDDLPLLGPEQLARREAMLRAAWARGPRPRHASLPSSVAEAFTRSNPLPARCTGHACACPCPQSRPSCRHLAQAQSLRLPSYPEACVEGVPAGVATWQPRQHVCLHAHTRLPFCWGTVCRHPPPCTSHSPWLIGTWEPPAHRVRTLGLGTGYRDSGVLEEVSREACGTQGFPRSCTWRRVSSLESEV

With `CC(O)CCN1CCC(Cc2ccccc2)CC1.Cl` (stereo not shown) [Ex. 100, 4-benzyl-1-(3-hydroxy-butyl) piperidine hydrochloride], the melting point (in general, the temperature, or range, at which the solid turns liquid) lay in the range of 133 to 135 °C. Also, the ED50 (usually the dose that gives a 50% effect, or the effect in half of the subjects) in data set [1] was 3.5 mg/kg. Further, the IC50 on NR1A/2A NMDA receptor is greater than 300 µM. Moreover, at NR1A/2C NMDA receptor, the IC50 is greater than 300 µM. Besides, the IC50 on NR1A/2B NMDA receptor turned out to be 3 µM.
The compound `Cc1ccc(CC2CCN(CCC(C)O)CC2)cc1.Cl` (stereo not shown) [Ex. 104, 4-(4-methylbenzyl)-1-(3-hydroxy-butyl) piperidine hydrochloride] gave a melting point of 134 to 136 °C. In data set [1] (mice, tonic hindlimb extensor response after corneal current 50 mA), the ED50 was 2 mg/kg. Also, the IC50 at NR1A/2A NMDA receptor (cloned NR1A/2A subunits expressed in Xenopus oocytes, inhibition of agonist-evoked membrane current, read-out: 1A/2A IC50) came out at 110 µM. Besides, the IC50 on NR1A/2C NMDA receptor (cloned NR1A/2C subunits expressed in Xenopus oocytes, inhibition of agonist-evoked membrane current, read-out: 1A/2C IC50) is greater than 300 µM. Also, the IC50 on NR1A/2B NMDA receptor (cloned NR1A/2B subunits expressed in Xenopus oocytes, inhibition of agonist-evoked membrane current, read-out: 1A/2B IC50) stood at 0.8 µM.

For the origin of these results see US6534522B2, “Subtype-selective NMDA receptor ligands and the use thereof” (Warner-Lambert Company, priority 1995, dated 2003).
